From US8785457B2 (Cellzome Limited, priority 2009, dated 2014)
Like-named read-outs stand apart in the source and are kept apart here.

Tests used:
mTOR = biological target: T1, mTOR (Homo sapiens, UniProt P42345); experiment: mTOR kinobeads assay (competitive binding in Jurkat cell lysate, immunodetection)
T1 construct: endogenous in cells; host or cells: Jurkat, clone E6-1 (ATCC TIB-152) cell lysate
How it was run: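 IC50 derived from dose-response curves of mTOR captured on immobilized phenylmorpholin-chromen beads, detected by antibody dot blot with infrared fluorescence.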

PI3 Kgamma (PI3 Kg) = biological target: T2, PI3 Kgamma (PI3 Kg) (Homo sapiens, UniProt P48736); experiment: kinobeads assay, PI3Kgamma; format: binding
T2 construct: endogenous in cells; host or cells: cell lysate
T2 sequence (P48736 whole entry): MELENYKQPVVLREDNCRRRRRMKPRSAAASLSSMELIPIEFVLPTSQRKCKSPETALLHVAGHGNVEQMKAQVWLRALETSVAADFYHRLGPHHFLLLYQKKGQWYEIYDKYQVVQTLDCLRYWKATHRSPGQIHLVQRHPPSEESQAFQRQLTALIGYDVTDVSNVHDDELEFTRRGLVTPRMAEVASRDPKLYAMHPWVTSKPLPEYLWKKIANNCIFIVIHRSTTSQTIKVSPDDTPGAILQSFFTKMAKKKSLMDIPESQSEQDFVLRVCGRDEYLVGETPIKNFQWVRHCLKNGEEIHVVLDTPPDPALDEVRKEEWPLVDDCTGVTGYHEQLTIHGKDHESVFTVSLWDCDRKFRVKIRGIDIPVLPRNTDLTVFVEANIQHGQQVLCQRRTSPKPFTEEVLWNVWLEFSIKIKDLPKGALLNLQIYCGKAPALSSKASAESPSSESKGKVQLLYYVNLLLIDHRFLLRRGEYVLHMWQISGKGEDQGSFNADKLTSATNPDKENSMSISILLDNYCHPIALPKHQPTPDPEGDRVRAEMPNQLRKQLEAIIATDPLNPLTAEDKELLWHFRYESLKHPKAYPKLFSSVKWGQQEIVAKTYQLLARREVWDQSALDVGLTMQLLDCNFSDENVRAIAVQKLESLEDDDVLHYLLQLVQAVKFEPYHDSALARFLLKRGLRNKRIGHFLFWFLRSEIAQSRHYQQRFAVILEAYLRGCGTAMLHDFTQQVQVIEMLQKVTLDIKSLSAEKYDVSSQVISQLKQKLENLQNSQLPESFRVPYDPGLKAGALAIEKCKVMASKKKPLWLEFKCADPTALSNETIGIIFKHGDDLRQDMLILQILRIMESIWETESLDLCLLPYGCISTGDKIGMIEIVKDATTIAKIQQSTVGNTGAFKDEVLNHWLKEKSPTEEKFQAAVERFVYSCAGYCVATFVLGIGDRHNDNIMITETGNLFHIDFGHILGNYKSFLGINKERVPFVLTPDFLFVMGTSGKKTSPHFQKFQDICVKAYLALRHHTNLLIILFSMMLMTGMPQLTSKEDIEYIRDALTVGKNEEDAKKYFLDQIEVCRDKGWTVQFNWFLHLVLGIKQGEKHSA
How it was run: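 Test compounds at various concentrations were added to cell lysate together with beads carrying an immobilized phenylmorpholin-chromen ligand, competing for kinase binding. Captured proteins were separated, eluted and quantified by multiplexed immunodetection; IC50 values came from dose-response curves for each kinase.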

[1] = test system: S6RP serine-240/244 phosphorylation; experiment: In vitro Phospho-S6 cellular assay (pS6RP S240/244) in HEK293T/17 cells; format: cell-based; conditions: Homo sapiens, 2 hours, read-out: pS6 IC50
How it was run: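 HEK293T/17 cells were seeded at 40,000 (pS6RP) or 80,000 (pAkt) cells/well in DMEM with 2% FCS. They were exposed to 8 compound concentrations (0.1% DMSO) for 2 h at 37 °C and then lysed. Phosphoprotein was quantified by MesoScale electrochemiluminescence sandwich immunoassay, and the sigmoidal variable-slope dose-response was fitted.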

[2] = kinobeads assay, Table 4, read-out: Inhibition values (IC50) mTor
[3] = kinobeads assay, Table 6, read-out: Inhibition values (IC50) mTOR
[4] = kinobeads assay, Table 6, read-out: Inhibition values (IC50) PI3Kg
[5] = Further Kinobeads Data, read-out: mTor
[6] = Further Kinobeads Data, read-out: PI3Kg

CCNC(=O)Nc1ccc(-c2nc3c(c(N4CCOC[C@@H]4C)n2)CCN(C)C3)cc1 [Example 35, (S)-1-ethyl-3-(4-(7-methyl-4-(3-methylmorpholino)-5,6,7,8-tetrahydropyrido[3,4-d]pyrimidin-2-yl)phenyl)urea]
IC50 (mTOR; [2]): < 100 nM | IC50 (mTOR; [3]): < 100 nM | IC50 (PI3 Kgamma (PI3 Kg); [4]): > 10 µM | IC50 [1]: 37 nM

CCNC(=O)Nc1ccc(-c2nc3c(c(N4CCOC[C@@H]4C)n2)CN(C(=O)C(C)C)C3)cc1 [Example 21, (S)-1-ethyl-3-(4-(6-isobutyryl-4-(3-methylmorpholino)-6,7-dihydro-5H-pyrrolo[3,4-d]pyrimidin-2-yl)phenyl)urea]
IC50 (mTOR; [2]): < 100 nM | IC50 (mTOR; [3]): < 100 nM | IC50 (PI3 Kgamma (PI3 Kg); [4]): > 10 µM | IC50 [1]: 111 nM

CC(C)N1Cc2nc(-c3ccc(NC(=O)NCCO)cc3F)nc(N3CCOC[C@@H]3C)c2C1 [Example 187, (S)-1-(3-fluoro-4-(6-isopropyl-4-(3-methylmorpholino)-6,7-dihydro-5H-pyrrolo[3,4-d]pyrimidin-2-yl)phenyl)-3-(2-hydroxyethyl)urea]
IC50 (mTOR; [5]): < 100 nM | IC50 (PI3 Kgamma (PI3 Kg); [6]): > 10 µM | IC50 [1]: 563 nM

CCNC(=O)Nc1ccc(-c2nc3c(c(N4CCOC[C@@H]4C)n2)CN(C(=O)OC)C3)c(F)c1 [Example 152, (S)-methyl 2-(4-(3-ethylureido)-2-fluorophenyl)-4-(3-methylmorpholino)-5H-pyrrolo[3,4-d]pyrimidine-6-(7H)-carboxylate]
IC50 (mTOR; [5]): 100 to 1000 nM | IC50 (PI3 Kgamma (PI3 Kg); [6]): > 10 µM | IC50 [1]: 93 nM

C[C@H]1COCCN1c1nc(-c2ccc(NC(=O)NC3CC3)cc2F)nc2c1CCNC2 [Example 163, (S)-1-cyclopropyl-3-(3-fluoro-4-(4-(3-methylmorpholino)-5,6,7,8-tetrahydropyrido[3,4-d]pyrimidin-2-yl)phenyl)urea]
IC50 (mTOR; [5]): < 100 nM | IC50 (PI3 Kgamma (PI3 Kg); [6]): > 10 µM | IC50 [1]: 405 nM

COC(=O)N1Cc2nc(-c3ccc(NC(=O)NCCO)cc3F)nc(N3CCOC[C@@H]3C)c2C1 [Example 181, (S)-methyl 2-(2-fluoro-4-(3-(2-hydroxyethyl)ureido)phenyl)-4-(3-methylmorpholino)-5H-pyrrolo[3,4-d]pyrimidine-6(7H)-carboxylate]
IC50 (mTOR; [5]): < 100 nM | IC50 (PI3 Kgamma (PI3 Kg); [6]): > 10 µM | IC50 [1]: 962 nM

CCNC(=O)Nc1ccc(-c2nc3c(c(N4CCOC[C@@H]4C)n2)CN(C(=O)C2CC2)C3)cc1 [Example 23, (S)-1-(4-(6-(cyclopropanecarbonyl)-4-(3-methylmorpholino)-6,7-dihydro-5H-pyrrolo[3,4-d]pyrimidin-2-yl)phenyl)-3-ethylurea]
IC50 (mTOR; [2]): < 100 nM | IC50 (mTOR; [3]): < 100 nM | IC50 (PI3 Kgamma (PI3 Kg); [4]): > 10 µM | IC50 [1]: 115 nM

COC(=O)N1Cc2nc(-c3ccc(NC(=O)NC4CC4)cc3F)nc(N3CCOC[C@H]3C)c2C1 [Example 180, (R)-methyl 2-(4-(3-cyclopropylureido)-2-fluorophenyl)-4-(3-methylmorpholino)-5H-pyrrolo[3,4-d]pyrimidine-6(7H)-carboxylate]
IC50 (mTOR; [5]): < 100 nM | IC50 (PI3 Kgamma (PI3 Kg); [6]): > 10 µM | IC50 [1]: 58 nM

CC(C)N1Cc2nc(-c3ccc(NC(=O)NCCF)cc3F)nc(N3CCOCC3)c2C1 [Example 185, 1-(3-fluoro-4-(6-isopropyl-4-morpholino-6,7-dihyro-5H-pyrrolo[3,4-d]pyrimidin-2-yl)phenyl)-3-(2-fluoroethyl)urea]
IC50 (mTOR; [5]): < 100 nM | IC50 (PI3 Kgamma (PI3 Kg); [6]): > 10 µM | IC50 [1]: 360 nM

CCOC(=O)N1Cc2nc(-c3ccc(NC(=O)NC4CC4)cc3)nc(N3CCOC[C@@H]3C)c2C1 [Example 34, (S)-ethyl 2-(4-(3-cyclopropylureido)phenyl)-4-(3-methylmorpholino)-5H-pyrrolo[3,4-d]pyrimidine-6(7H)-carboxylate]
IC50 (mTOR; [2]): < 100 nM | IC50 (mTOR; [3]): < 100 nM | IC50 (PI3 Kgamma (PI3 Kg); [4]): > 10 µM | IC50 [1]: 49 nM

CCOC(=O)N1Cc2nc(-c3ccc(NC(=O)NC4CC4)cc3F)nc(N3CCOC[C@H]3C)c2C1 [Example 179, (R)-ethyl 2-(4-(3-cyclopropylureido)-2-fluorophenyl)-4-(3-methylmorpholino)-5H-pyrrolo[3,4-d]pyrimidine-6(7H)-carboxylate]
IC50 (mTOR; [5]): < 100 nM | IC50 (PI3 Kgamma (PI3 Kg); [6]): > 10 µM | IC50 [1]: 63 nM

CCNC(=O)Nc1ccc(-c2nc3c(c(N4CCOC[C@@H]4C)n2)CN(CC2CC2)C3)cc1 [Example 28, (S)-1-(4-(6-(cyclopropylmethyl)-4-(3-methylmorpholino)-6,7-dihydro-5H-pyrrolo[3,4-d]pyrimidin-2-yl)phenyl)-3-ethylurea]
IC50 (mTOR; [2]): < 100 nM | IC50 (mTOR; [3]): < 100 nM | IC50 (PI3 Kgamma (PI3 Kg); [4]): > 10 µM | IC50 [1]: 72 nM

CCNC(=O)Nc1ccc(-c2nc3c(c(N4CCOC[C@@H]4C)n2)CN(C(=O)OC(C)(C)C)C3)c(F)c1 [Example 153, (S)-tert-butyl 2-(4-(3-ethylureido)-2-fluorophenyl)-4-(3-methylmorpholino)-5H-pyrrolo[3,4-d]pyrimidine-6-(7H)-carboxylate]
IC50 (mTOR; [5]): < 100 nM | IC50 (PI3 Kgamma (PI3 Kg); [6]): > 10 µM | IC50 [1]: 140 nM

CCNC(=O)Nc1ccc(-c2nc3c(c(N4CCOC[C@@H]4C)n2)CCNC3)c(F)c1 [Example 164, (S)-1-ethyl-3-(3-fluoro-4-(4-(3-methylmorpholino)-5,6,7,8-tetrahydropyrido[3,4-d]pyrimidin-2-yl)phenyl)urea]
IC50 (mTOR; [5]): < 100 nM | IC50 (PI3 Kgamma (PI3 Kg); [6]): > 10 µM | IC50 [1]: 510 nM

CCNC(=O)Nc1ccc(-c2nc3c(c(N4CCOC[C@@H]4C)n2)CCN(C(=O)c2ccc(F)cc2)C3)cc1 [Example 24, (S)-1-ethyl-3-(4-(7-(4-fluorobenzoyl)-4-(3-methylmorpholino)-5,6,7,8-tetrahydropyrido[3,4-d]pyrimidin-2-yl)phenyl)urea]
IC50 (mTOR; [2]): 100 to 1000 nM | IC50 (mTOR; [3]): 100 to 1000 nM | IC50 (PI3 Kgamma (PI3 Kg); [4]): > 10 µM | IC50 [1]: 126 nM

CC(=O)N1Cc2nc(-c3ccc(NC(=O)NC4CC4)cc3F)nc(N3CCOC[C@@H]3C)c2C1 [Example 155, (S)-1-(4-(6-acetyl-4-(3-methylmorpholino)-6,7-dihydro-5H-pyrrolo[3,4-d]pyrimidin-2-yl)-3-fluorophenyl)-3-cyclopropylurea]
IC50 (mTOR; [5]): < 100 nM | IC50 (PI3 Kgamma (PI3 Kg); [6]): > 10 µM | IC50 [1]: 815 nM

C[C@@H]1COCCN1c1nc(-c2ccc(NC(=O)NC3CC3)cc2F)nc2c1CN(C(=O)C1CC1)C2 [Example 188, (R)-1-(4-(6-(cyclopropanecarbonyl)-4-(3-methylmorpholino)-6,7-dihydro-5H-pyrrolo[3,4-d]pyrimidin-2-yl)-3-fluorophenyl)-3-cyclopropylurea]
IC50 (mTOR; [5]): < 100 nM | IC50 (PI3 Kgamma (PI3 Kg); [6]): > 10 µM | IC50 [1]: 218 nM

CCNC(=O)Nc1ccc(-c2nc3c(c(N4CCOCC4)n2)CN(C(=O)OC)C3)c(F)c1 [Example 162, methyl 2-(4-(3-ethylureido)-2-fluorophenyl)-4-morpholino-5H-pyrrolo[3,4-d]pyrimidine-6(7H)-carboxylate]
IC50 (mTOR; [5]): < 100 nM | IC50 (PI3 Kgamma (PI3 Kg); [6]): > 10 µM | IC50 [1]: 114 nM

CCOC(=O)N1Cc2nc(-c3ccc(NC(=O)NCCO)cc3F)nc(N3CCOCC3)c2C1 [Example 171, ethyl 2-(2-fluoro-4-(3-(2-hydroxyethyl)ureido)phenyl)-4-morpholino-5H-pyrrolo[3,4-d]pyrimidine-6(7H)-carboxylate]
IC50 (mTOR; [5]): < 100 nM | IC50 (PI3 Kgamma (PI3 Kg); [6]): > 10 µM | IC50 [1]: 983 nM

C[C@H]1COCCN1c1nc(-c2ccc(NC(=O)NC3CC3)cc2F)nc2c1CCN(C(=O)N(C)C)C2 [Example 165, (S)-2-(4-(3-cyclopropylureido)-2-fluorophenyl)-N,N-dimethyl-4-(3-methylmorpholino)-5,6-dihydropyrido[3,4-d]pyrimidine-7(8H)-carboxamide]
IC50 (mTOR; [5]): < 100 nM | IC50 (PI3 Kgamma (PI3 Kg); [6]): > 10 µM | IC50 [1]: 45 nM

C[C@H]1COCCN1c1nc(-c2ccc(NC(=O)NC3CC3)cc2)nc2c1CCN(CC1CC1)C2 [Example 40, (S)-1-cyclopropyl-3-(4-(7-(cyclopropylmethyl)-4-(3-methylmorpholino)-5,6,7,8-tetrahydropyrido[3,4-d]pyrimidin-2-yl)phenyl)urea]
IC50 (mTOR; [2]): < 100 nM | IC50 (mTOR; [3]): < 100 nM | IC50 (PI3 Kgamma (PI3 Kg); [4]): 1 to 10 µM | IC50 [1]: 70 nM

CCNC(=O)Nc1ccc(-c2nc3c(c(N4CCOC[C@@H]4C)n2)CN(C)C3)c(F)c1 [Example 160, (S)-1-ethyl-3-(3-fluoro-4-(6-methyl-4-(3-methylmorpholino)-6,7-dihydro-5H-pyrrolo[3,4-d]pyrimidin-2-yl)phenyl)urea]
IC50 (mTOR; [5]): < 100 nM | IC50 (PI3 Kgamma (PI3 Kg); [6]): > 10 µM | IC50 [1]: 355 nM

CCNC(=O)Nc1ccc(-c2nc3c(c(N4CCOC[C@@H]4C)n2)CCN(C(=O)N(C)C)C3)c(F)c1 [Example 176, (S)-2-(4-(3-ethylureido)-2-fluorophenyl)-N,N-dimethyl-4-(3-methylmorpholino)-5,6-dihydropyrido[3,4-d]pyrimidine-7(8H)-carboxamide]
IC50 (mTOR; [5]): < 100 nM | IC50 (PI3 Kgamma (PI3 Kg); [6]): 1 to 10 µM | IC50 [1]: 76 nM

CCNC(=O)Nc1ccc(-c2nc3c(c(N4CCOC[C@@H]4C)n2)CCN(CC)C3)cc1 [Example 27, (S)-1-ethyl-3-(4-(7-ethyl-4-(3-methylmorpholino)-5,6,7,8-tetrahydropyrido[3,4-d]pyrimidin-2-yl)phenyl)urea]
IC50 (mTOR; [2]): < 100 nM | IC50 (mTOR; [3]): < 100 nM | IC50 (PI3 Kgamma (PI3 Kg); [4]): 1 to 10 µM | IC50 [1]: 24 nM
